Literature values as cited in patent US20160144033A1, “CONCENTRATED ACETAMINOPHEN SOLUTION” (Emphascience, Inc., priority 2014, published 2016).

Conditions: room temperature

solubility of acetaminophen in water: ca. 13 mg per ml
Structure (SMILES): CC(=O)Nc1ccc(O)cc1 [acetaminophen]
